Measured values taken from the supplement of paper PMC10307832.

How the values were obtained:
Assay in all cases: relative viability (nuclei count vs DMSO), 5 days (fraction); higher = more cells survive
[1] = system: EMC-BAC-2
How it was run: (§1)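 After 5 days of treatment, lung cancer cells in 1536-well plates were fixed and stained in a single step (final 0.05% Triton X-100, 1% formaldehyde, 1 ug/ml Hoechst) and their nuclei counted on 4× images. Treatment had been applied by pin tool the day after seeding as one drug alone or as a fixed anchor-drug dose with five library-drug doses (not always all listed) in √10 steps. Relative viability is the nuclei count of treated wells divided by that of vehicle wells, and values are medians of duplicate plates.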

[2] = system: EPLC-272H
How it was run: as §1

[3] = system: H3255
How it was run: as §1

[4] = system: HOP-62
How it was run: as §1

[5] = system: LCLC-97TM1
How it was run: as §1

[6] = system: LXF-289
How it was run: as §1

[7] = system: NCI-H1563
How it was run: as §1

[8] = system: NCI-H1734
How it was run: as §1

[9] = system: NCI-H1915
How it was run: as §1

[10] = system: NCI-H1993
How it was run: as §1

[11] = system: NCI-H2009
How it was run: as §1

[12] = system: NCI-H2023
How it was run: as §1

[13] = system: NCI-H2085
How it was run: as §1

[14] = system: NCI-H2126
How it was run: as §1

[15] = system: NCI-H2347
How it was run: as §1

[16] = system: NCI-H322M
How it was run: as §1

[17] = system: NCI-H647
How it was run: as §1

[18] = system: NCI-H661
How it was run: as §1

[19] = system: NCI-H727
How it was run: as §1

[20] = system: PC-14
How it was run: as §1

[21] = system: SK-LU-1
How it was run: as §1

[22] = system: SW 1573
How it was run: as §1

**Q.** Which relative viability ([1]; first compound 0.01 µM) does the source give for O=c1cc(N2CCOCC2)oc2c(-c3cccc4c3sc3ccccc34)cccc12 + C[C@]1(O)C[C@@H](c2nc(-c3ccc4ccc(-c5ccccc5)nc4c3)c3c(N)nccn32)C1 [Linsitinib] (partner 1 µM) here?
**A.** 0.822

**Q.** What about the relative viability ([1]; first compound 0.03162 µM) of the same compound?
**A.** 0.867

**Q.** And the relative viability ([1]; first compound 0.1 µM)?
**A.** 0.813

**Q.** And the relative viability ([1]; first compound 0.3162 µM)?
**A.** 0.773

**Q.** What about the relative viability ([1]; first compound 1 µM) of the same compound?
**A.** 0.806

**Q.** What about the relative viability ([2]; first compound 0.01 µM) of the same compound?
**A.** 0.987

**Q.** And the relative viability ([2]; first compound 0.03162 µM)?
**A.** 1.17

**Q.** And the relative viability ([2]; first compound 0.3162 µM)?
**A.** 1.31

**Q.** And the relative viability ([2]; first compound 1 µM)?
**A.** 1.1

**Q.** What about the relative viability ([3]; first compound 0.01 µM) of the same compound?
**A.** 1

**Q.** And the relative viability ([3]; first compound 0.03162 µM)?
**A.** 0.988

**Q.** And the relative viability ([3]; first compound 0.1 µM)?
**A.** 1.14

**Q.** What about the relative viability ([3]; first compound 0.3162 µM) of the same compound?
**A.** 0.95

**Q.** And the relative viability ([3]; first compound 1 µM)?
**A.** 1.09

**Q.** And the relative viability ([4]; first compound 0.01 µM)?
**A.** 0.991

**Q.** And the relative viability ([4]; first compound 0.03162 µM)?
**A.** 1.12

**Q.** And the relative viability ([4]; first compound 0.1 µM)?
**A.** 0.909

**Q.** And the relative viability ([4]; first compound 0.3162 µM)?
**A.** 0.933

**Q.** What about the relative viability ([4]; first compound 1 µM) of the same compound?
**A.** 0.989

**Q.** What about the relative viability ([5]; first compound 0.01 µM) of the same compound?
**A.** 0.217

**Q.** What about the relative viability ([5]; first compound 0.03162 µM) of the same compound?
**A.** 0.203

**Q.** And the relative viability ([5]; first compound 0.3162 µM)?
**A.** 0.198

**Q.** What about the relative viability ([5]; first compound 1 µM) of the same compound?
**A.** 0.18

**Q.** What about the relative viability ([6]; first compound 0.01 µM) of the same compound?
**A.** 0.983

**Q.** What about the relative viability ([6]; first compound 0.03162 µM) of the same compound?
**A.** 0.927

**Q.** And the relative viability ([6]; first compound 0.1 µM)?
**A.** 0.978

**Q.** What about the relative viability ([6]; first compound 0.3162 µM) of the same compound?
**A.** 0.978

**Q.** What about the relative viability ([6]; first compound 1 µM) of the same compound?
**A.** 0.897

**Q.** And the relative viability ([7]; first compound 0.01 µM)?
**A.** 1.18

**Q.** What about the relative viability ([7]; first compound 0.03162 µM) of the same compound?
**A.** 1.21

**Q.** And the relative viability ([7]; first compound 0.1 µM)?
**A.** 1.19

**Q.** And the relative viability ([7]; first compound 0.3162 µM)?
**A.** 1.14

**Q.** What about the relative viability ([7]; first compound 1 µM) of the same compound?
**A.** 1

**Q.** And the relative viability ([8]; first compound 0.01 µM)?
**A.** 0.963

**Q.** What about the relative viability ([8]; first compound 0.03162 µM) of the same compound?
**A.** 1.03

**Q.** And the relative viability ([8]; first compound 0.1 µM)?
**A.** 0.906

**Q.** And the relative viability ([8]; first compound 0.3162 µM)?
**A.** 0.843

**Q.** And the relative viability ([8]; first compound 1 µM)?
**A.** 0.89

**Q.** And the relative viability ([9]; first compound 0.01 µM)?
**A.** 1.04

**Q.** What about the relative viability ([9]; first compound 0.03162 µM) of the same compound?
**A.** 1.15

**Q.** What about the relative viability ([9]; first compound 0.1 µM) of the same compound?
**A.** 0.636

**Q.** And the relative viability ([9]; first compound 0.3162 µM)?
**A.** 1.1

**Q.** What about the relative viability ([9]; first compound 1 µM) of the same compound?
**A.** 1.08

**Q.** And the relative viability ([10]; first compound 0.01 µM)?
**A.** 0.73

**Q.** What about the relative viability ([10]; first compound 0.03162 µM) of the same compound?
**A.** 0.785

**Q.** And the relative viability ([10]; first compound 0.1 µM)?
**A.** 0.687

**Q.** And the relative viability ([10]; first compound 0.3162 µM)?
**A.** 0.79

**Q.** And the relative viability ([10]; first compound 1 µM)?
**A.** 0.531

**Q.** And the relative viability ([11]; first compound 0.01 µM)?
**A.** 1.16

**Q.** What about the relative viability ([11]; first compound 0.03162 µM) of the same compound?
**A.** 1.17

**Q.** What about the relative viability ([11]; first compound 0.1 µM) of the same compound?
**A.** 1.19

**Q.** And the relative viability ([11]; first compound 0.3162 µM)?
**A.** 1.17

**Q.** What about the relative viability ([11]; first compound 1 µM) of the same compound?
**A.** 1.05

**Q.** What about the relative viability ([12]; first compound 0.01 µM) of the same compound?
**A.** 0.735

**Q.** What about the relative viability ([12]; first compound 0.03162 µM) of the same compound?
**A.** 0.66

**Q.** And the relative viability ([12]; first compound 0.1 µM)?
**A.** 0.603

**Q.** And the relative viability ([12]; first compound 0.3162 µM)?
**A.** 0.564

**Q.** What about the relative viability ([12]; first compound 1 µM) of the same compound?
**A.** 0.557

**Q.** What about the relative viability ([13]; first compound 0.01 µM) of the same compound?
**A.** 0.983

**Q.** And the relative viability ([13]; first compound 0.03162 µM)?
**A.** 0.914

**Q.** What about the relative viability ([13]; first compound 0.1 µM) of the same compound?
**A.** 0.933

**Q.** And the relative viability ([13]; first compound 0.3162 µM)?
**A.** 0.889

**Q.** And the relative viability ([13]; first compound 1 µM)?
**A.** 0.821

**Q.** And the relative viability ([14]; first compound 0.01 µM)?
**A.** 0.698

**Q.** And the relative viability ([14]; first compound 0.03162 µM)?
**A.** 0.664

**Q.** What about the relative viability ([14]; first compound 0.1 µM) of the same compound?
**A.** 0.691

**Q.** What about the relative viability ([14]; first compound 0.3162 µM) of the same compound?
**A.** 0.702

**Q.** What about the relative viability ([14]; first compound 1 µM) of the same compound?
**A.** 0.725

**Q.** And the relative viability ([15]; first compound 0.01 µM)?
**A.** 1.02

**Q.** And the relative viability ([15]; first compound 0.03162 µM)?
**A.** 0.943

**Q.** What about the relative viability ([15]; first compound 0.1 µM) of the same compound?
**A.** 0.962

**Q.** What about the relative viability ([15]; first compound 0.3162 µM) of the same compound?
**A.** 0.926

**Q.** What about the relative viability ([15]; first compound 1 µM) of the same compound?
**A.** 0.945

**Q.** What about the relative viability ([16]; first compound 0.01 µM) of the same compound?
**A.** 0.913

**Q.** And the relative viability ([16]; first compound 0.03162 µM)?
**A.** 0.915

**Q.** And the relative viability ([16]; first compound 0.3162 µM)?
**A.** 0.993

**Q.** And the relative viability ([16]; first compound 1 µM)?
**A.** 0.83

**Q.** What about the relative viability ([17]; first compound 0.01 µM) of the same compound?
**A.** 1.02

**Q.** What about the relative viability ([17]; first compound 0.03162 µM) of the same compound?
**A.** 1.24

**Q.** And the relative viability ([17]; first compound 0.1 µM)?
**A.** 1.22

**Q.** And the relative viability ([17]; first compound 0.3162 µM)?
**A.** 1.09

**Q.** And the relative viability ([17]; first compound 1 µM)?
**A.** 0.954

**Q.** And the relative viability ([18]; first compound 0.01 µM)?
**A.** 0.652

**Q.** And the relative viability ([18]; first compound 0.03162 µM)?
**A.** 0.579

**Q.** What about the relative viability ([18]; first compound 0.1 µM) of the same compound?
**A.** 0.571

**Q.** What about the relative viability ([18]; first compound 0.3162 µM) of the same compound?
**A.** 0.649

**Q.** And the relative viability ([18]; first compound 1 µM)?
**A.** 0.614

**Q.** What about the relative viability ([19]; first compound 0.01 µM) of the same compound?
**A.** 0.29

**Q.** What about the relative viability ([19]; first compound 0.03162 µM) of the same compound?
**A.** 0.238

**Q.** And the relative viability ([19]; first compound 0.1 µM)?
**A.** 0.243

**Q.** And the relative viability ([19]; first compound 0.3162 µM)?
**A.** 0.227

**Q.** And the relative viability ([19]; first compound 1 µM)?
**A.** 0.283

**Q.** What about the relative viability ([20]; first compound 0.01 µM) of the same compound?
**A.** 0.998

**Q.** What about the relative viability ([20]; first compound 0.03162 µM) of the same compound?
**A.** 0.934

**Q.** And the relative viability ([20]; first compound 0.1 µM)?
**A.** 0.952

**Q.** And the relative viability ([20]; first compound 0.3162 µM)?
**A.** 0.952

**Q.** What about the relative viability ([20]; first compound 1 µM) of the same compound?
**A.** 0.848

**Q.** And the relative viability ([21]; first compound 0.03162 µM)?
**A.** 1.25

**Q.** And the relative viability ([21]; first compound 0.1 µM)?
**A.** 1.12

**Q.** And the relative viability ([21]; first compound 0.3162 µM)?
**A.** 1.19

**Q.** What about the relative viability ([21]; first compound 1 µM) of the same compound?
**A.** 0.969

**Q.** What about the relative viability ([22]; first compound 0.01 µM) of the same compound?
**A.** 0.955

**Q.** And the relative viability ([22]; first compound 0.03162 µM)?
**A.** 0.832

**Q.** And the relative viability ([22]; first compound 0.1 µM)?
**A.** 0.746

**Q.** And the relative viability ([22]; first compound 0.3162 µM)?
**A.** 0.813

**Q.** What about the relative viability ([22]; first compound 1 µM) of the same compound?
**A.** 0.653
